{"source": "patent US20100137449A1", "about": "“SUBSTITUTED 1,3-CYCLOPENTADIONE MULTI-TARGET PROTEIN KINASE MODULATORS OF CANCER, ANGIOGENESIS AND THE INFLAMMATORY PATHWAYS ASSOCIATED THEREWITH” (METAPROTEOMICS, LLC, priority 2007, published 2010)", "assay_in_all_cases": "KinaseProfiler Assay", "key": {"CaMKIIδ(h)": {"target": "CaMKIIδ(h) (Homo sapiens, UniProt Q13557)", "sequence (Q13557 whole entry)": "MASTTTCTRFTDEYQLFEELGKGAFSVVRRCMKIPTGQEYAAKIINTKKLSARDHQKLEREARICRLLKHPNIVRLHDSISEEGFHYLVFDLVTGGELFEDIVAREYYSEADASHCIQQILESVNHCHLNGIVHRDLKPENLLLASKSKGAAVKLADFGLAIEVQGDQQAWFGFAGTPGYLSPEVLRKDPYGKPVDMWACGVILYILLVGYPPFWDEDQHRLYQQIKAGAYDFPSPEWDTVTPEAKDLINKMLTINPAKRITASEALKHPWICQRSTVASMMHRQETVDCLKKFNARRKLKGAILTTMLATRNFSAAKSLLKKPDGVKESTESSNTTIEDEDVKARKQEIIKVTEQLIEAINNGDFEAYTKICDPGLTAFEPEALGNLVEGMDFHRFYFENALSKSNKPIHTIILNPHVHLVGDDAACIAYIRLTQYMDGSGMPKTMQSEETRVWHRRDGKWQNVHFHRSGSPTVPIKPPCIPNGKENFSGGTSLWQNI"}, "DCAMKL2(h)": {"target": "T1, DCAMKL2(h) (Homo sapiens, UniProt Q8N568)", "T1 sequence (Q8N568 1-766)": "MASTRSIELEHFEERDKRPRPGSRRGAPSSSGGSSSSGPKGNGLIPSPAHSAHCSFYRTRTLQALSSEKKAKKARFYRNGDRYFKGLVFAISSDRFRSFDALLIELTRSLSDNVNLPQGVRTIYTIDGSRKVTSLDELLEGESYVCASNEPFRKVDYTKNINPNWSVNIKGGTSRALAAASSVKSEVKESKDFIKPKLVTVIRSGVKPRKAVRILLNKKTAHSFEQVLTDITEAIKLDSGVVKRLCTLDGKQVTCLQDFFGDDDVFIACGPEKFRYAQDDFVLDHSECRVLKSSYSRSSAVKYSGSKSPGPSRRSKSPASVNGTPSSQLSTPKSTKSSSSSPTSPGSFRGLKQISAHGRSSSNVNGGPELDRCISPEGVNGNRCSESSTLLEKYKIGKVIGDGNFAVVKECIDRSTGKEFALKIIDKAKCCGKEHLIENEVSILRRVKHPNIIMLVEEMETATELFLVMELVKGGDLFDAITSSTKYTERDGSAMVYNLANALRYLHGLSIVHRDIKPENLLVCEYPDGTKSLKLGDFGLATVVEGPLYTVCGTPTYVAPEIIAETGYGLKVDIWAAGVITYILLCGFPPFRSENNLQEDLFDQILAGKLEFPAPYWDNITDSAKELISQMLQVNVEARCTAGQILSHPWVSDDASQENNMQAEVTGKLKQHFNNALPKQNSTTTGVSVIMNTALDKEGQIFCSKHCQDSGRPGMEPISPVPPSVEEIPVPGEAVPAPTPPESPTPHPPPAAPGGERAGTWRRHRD"}, "FGFR2(h)": {"target": "FGFR2(h) (Homo sapiens, UniProt P21802)", "sequence (P21802 22-821)": "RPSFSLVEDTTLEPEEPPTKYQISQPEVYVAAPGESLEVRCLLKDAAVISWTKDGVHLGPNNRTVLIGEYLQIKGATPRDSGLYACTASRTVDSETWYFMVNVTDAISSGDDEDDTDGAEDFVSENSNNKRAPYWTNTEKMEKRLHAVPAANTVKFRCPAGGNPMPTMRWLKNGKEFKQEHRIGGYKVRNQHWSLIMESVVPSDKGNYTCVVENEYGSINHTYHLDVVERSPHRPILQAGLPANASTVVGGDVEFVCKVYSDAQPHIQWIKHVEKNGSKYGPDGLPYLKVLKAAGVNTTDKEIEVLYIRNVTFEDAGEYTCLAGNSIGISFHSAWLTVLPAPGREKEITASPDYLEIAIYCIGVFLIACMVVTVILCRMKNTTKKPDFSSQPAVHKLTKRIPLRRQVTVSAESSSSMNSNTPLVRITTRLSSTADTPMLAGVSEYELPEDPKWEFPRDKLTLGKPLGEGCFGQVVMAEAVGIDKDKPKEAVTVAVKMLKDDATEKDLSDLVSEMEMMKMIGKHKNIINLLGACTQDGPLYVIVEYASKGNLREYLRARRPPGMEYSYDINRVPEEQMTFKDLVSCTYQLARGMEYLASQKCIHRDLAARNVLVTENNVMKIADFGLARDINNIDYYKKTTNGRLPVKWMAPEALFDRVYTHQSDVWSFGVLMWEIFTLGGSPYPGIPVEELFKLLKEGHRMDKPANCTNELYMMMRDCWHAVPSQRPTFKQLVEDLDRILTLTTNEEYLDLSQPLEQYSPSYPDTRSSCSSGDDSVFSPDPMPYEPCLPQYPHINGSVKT"}, "FGFR3(h)": {"target": "FGFR3(h) (Homo sapiens, UniProt P22607)", "sequence (P22607 23-806)": "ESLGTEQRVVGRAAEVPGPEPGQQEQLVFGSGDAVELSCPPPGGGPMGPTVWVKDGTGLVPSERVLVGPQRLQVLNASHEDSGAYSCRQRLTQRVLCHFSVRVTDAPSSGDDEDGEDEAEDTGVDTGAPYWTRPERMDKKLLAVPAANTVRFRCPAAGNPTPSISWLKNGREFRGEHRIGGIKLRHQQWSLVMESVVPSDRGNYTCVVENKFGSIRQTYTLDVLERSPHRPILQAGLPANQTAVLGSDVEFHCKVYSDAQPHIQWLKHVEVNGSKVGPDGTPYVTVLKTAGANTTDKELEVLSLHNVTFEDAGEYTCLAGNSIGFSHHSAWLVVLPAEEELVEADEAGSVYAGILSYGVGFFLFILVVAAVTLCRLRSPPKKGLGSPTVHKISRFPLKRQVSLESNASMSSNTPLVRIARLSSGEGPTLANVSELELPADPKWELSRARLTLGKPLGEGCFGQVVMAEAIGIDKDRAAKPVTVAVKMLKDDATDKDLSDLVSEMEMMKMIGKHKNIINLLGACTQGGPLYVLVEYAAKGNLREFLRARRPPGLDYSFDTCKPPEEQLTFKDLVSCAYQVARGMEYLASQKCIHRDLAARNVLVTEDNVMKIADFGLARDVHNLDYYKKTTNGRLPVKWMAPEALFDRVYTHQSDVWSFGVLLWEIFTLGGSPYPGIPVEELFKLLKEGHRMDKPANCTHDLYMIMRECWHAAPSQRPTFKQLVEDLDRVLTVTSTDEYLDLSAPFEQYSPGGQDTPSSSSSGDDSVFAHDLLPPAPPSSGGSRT"}, "NEK11(h)": {"target": "T2, NEK11(h) (Homo sapiens, UniProt Q8NG66)", "T2 sequence (Q8NG66 1-645)": "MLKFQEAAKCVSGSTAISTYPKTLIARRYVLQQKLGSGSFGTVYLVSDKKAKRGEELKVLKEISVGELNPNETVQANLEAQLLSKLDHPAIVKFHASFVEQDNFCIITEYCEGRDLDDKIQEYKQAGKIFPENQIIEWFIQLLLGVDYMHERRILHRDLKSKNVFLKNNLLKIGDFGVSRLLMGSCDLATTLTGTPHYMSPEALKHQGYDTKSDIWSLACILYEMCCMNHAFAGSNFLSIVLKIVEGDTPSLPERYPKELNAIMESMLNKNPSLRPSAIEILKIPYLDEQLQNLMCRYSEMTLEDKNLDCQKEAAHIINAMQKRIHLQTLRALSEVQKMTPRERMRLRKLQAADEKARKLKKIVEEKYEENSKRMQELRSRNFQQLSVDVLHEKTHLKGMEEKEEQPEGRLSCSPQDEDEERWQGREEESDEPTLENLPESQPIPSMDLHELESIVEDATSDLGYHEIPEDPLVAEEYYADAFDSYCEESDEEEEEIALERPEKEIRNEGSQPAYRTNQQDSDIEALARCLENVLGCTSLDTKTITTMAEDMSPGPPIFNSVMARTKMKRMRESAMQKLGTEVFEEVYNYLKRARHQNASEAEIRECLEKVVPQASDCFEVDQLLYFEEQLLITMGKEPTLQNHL"}, "PAK4(h)": {"target": "PAK4(h) (Homo sapiens, UniProt O96013)", "sequence (O96013 whole entry)": "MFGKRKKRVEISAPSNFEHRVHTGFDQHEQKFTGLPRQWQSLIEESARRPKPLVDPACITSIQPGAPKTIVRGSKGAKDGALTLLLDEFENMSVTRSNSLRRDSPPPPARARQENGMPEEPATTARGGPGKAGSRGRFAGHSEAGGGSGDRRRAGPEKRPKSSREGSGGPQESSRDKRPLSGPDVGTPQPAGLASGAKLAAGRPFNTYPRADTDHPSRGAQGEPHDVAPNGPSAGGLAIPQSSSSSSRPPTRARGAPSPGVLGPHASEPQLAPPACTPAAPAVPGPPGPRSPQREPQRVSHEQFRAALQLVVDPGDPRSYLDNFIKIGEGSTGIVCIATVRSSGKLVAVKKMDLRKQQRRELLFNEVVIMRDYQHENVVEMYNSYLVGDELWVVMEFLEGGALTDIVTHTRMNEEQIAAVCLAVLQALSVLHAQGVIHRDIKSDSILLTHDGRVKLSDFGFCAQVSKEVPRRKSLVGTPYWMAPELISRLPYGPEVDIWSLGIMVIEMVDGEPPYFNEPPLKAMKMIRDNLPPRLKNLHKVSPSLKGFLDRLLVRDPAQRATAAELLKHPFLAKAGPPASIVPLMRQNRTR"}, "Pim-2(h)": {"target": "Pim-2(h) (Homo sapiens, UniProt Q9P1W9)", "sequence (Q9P1W9 whole entry)": "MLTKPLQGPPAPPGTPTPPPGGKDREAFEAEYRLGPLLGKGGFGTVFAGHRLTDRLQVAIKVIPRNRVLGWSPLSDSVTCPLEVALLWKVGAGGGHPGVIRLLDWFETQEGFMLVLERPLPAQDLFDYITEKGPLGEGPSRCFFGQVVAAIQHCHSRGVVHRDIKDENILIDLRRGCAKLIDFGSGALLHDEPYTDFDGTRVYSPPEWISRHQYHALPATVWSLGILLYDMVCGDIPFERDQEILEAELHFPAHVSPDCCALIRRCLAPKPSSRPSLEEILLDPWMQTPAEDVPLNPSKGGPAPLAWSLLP"}, "SGK(h)": {"target": "T3, SGK(h) (Homo sapiens, UniProt O00141)", "T3 sequence (O00141 1-431)": "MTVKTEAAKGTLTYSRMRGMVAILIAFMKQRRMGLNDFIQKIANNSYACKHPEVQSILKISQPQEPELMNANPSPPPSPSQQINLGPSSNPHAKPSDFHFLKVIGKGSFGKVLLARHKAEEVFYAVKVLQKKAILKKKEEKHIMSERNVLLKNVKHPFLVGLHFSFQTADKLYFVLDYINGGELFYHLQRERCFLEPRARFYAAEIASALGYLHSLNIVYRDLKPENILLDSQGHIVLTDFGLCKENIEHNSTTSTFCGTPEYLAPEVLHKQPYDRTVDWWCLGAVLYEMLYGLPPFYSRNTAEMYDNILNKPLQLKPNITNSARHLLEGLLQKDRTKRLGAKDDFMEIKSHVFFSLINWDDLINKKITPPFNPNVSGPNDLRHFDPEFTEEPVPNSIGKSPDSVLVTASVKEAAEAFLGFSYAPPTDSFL"}, "TLK2(h)": {"target": "TLK2(h) (Homo sapiens, UniProt Q86UE8)", "sequence (Q86UE8 whole entry)": "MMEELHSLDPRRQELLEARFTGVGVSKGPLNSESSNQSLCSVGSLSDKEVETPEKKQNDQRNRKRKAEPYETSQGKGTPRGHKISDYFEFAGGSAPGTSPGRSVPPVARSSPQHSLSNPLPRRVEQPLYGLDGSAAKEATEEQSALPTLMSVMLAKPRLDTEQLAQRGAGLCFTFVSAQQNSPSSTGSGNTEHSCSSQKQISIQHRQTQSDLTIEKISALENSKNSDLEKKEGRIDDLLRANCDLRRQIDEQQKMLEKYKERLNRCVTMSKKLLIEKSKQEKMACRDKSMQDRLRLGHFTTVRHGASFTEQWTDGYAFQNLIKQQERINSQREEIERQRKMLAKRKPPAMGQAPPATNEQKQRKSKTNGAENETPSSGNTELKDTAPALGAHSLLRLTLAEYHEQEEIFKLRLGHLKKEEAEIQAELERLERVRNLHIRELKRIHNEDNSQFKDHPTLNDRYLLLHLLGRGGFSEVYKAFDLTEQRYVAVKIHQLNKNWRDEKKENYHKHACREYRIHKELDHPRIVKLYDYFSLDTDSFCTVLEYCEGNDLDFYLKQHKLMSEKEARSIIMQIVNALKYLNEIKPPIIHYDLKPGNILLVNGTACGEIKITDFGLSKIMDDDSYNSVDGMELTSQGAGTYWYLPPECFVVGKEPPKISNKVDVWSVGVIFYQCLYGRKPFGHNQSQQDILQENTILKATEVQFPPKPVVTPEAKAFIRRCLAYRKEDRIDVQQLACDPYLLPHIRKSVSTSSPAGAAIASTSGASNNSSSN"}}}
{"smiles": "CC(C)CCC(=O)[C@]1(O)C(O)=C(C(=O)C(C)C)C(=O)[C@H]1CCC(C)C", "note": "[TH2, tetrahydroiso-cohumulone]", "values": [{"measurement": "kinase inhibition", "setting": "CaMKIIδ(h); 1 μg/ml", "result": "99% of control"}, {"measurement": "kinase inhibition", "setting": "CaMKIIδ(h); 5 μg/ml", "result": "99% of control"}, {"measurement": "kinase inhibition", "setting": "CaMKIIδ(h); 25 μg/ml", "result": "100% of control"}, {"measurement": "kinase inhibition", "setting": "CaMKIIδ(h); 50 μg/ml", "result": "91% of control"}, {"measurement": "kinase inhibition", "setting": "CaMKIIδ(h); 100 μg/ml", "result": "87% of control"}, {"measurement": "kinase inhibition", "setting": "DCAMKL2(h); 1 μg/ml", "result": "96% of control"}, {"measurement": "kinase inhibition", "setting": "DCAMKL2(h); 5 μg/ml", "result": "100% of control"}, {"measurement": "kinase inhibition", "setting": "DCAMKL2(h); 25 μg/ml", "result": "110% of control"}, {"measurement": "kinase inhibition", "setting": "DCAMKL2(h); 50 μg/ml", "result": "96% of control"}, {"measurement": "kinase inhibition", "setting": "DCAMKL2(h); 100 μg/ml", "result": "86% of control"}, {"measurement": "kinase inhibition", "setting": "FGFR2(h); 1 μg/ml", "result": "111% of control"}, {"measurement": "kinase inhibition", "setting": "FGFR2(h); 5 μg/ml", "result": "98% of control"}, {"measurement": "kinase inhibition", "setting": "FGFR2(h); 25 μg/ml", "result": "102% of control"}, {"measurement": "kinase inhibition", "setting": "FGFR2(h); 50 μg/ml", "result": "96% of control"}, {"measurement": "kinase inhibition", "setting": "FGFR2(h); 100 μg/ml", "result": "78% of control"}, {"measurement": "kinase inhibition", "setting": "FGFR3(h); 1 μg/ml", "result": "94% of control"}, {"measurement": "kinase inhibition", "setting": "FGFR3(h); 5 μg/ml", "result": "92% of control"}, {"measurement": "kinase inhibition", "setting": "FGFR3(h); 25 μg/ml", "result": "67% of control"}, {"measurement": "kinase inhibition", "setting": "FGFR3(h); 50 μg/ml", "result": "64% of control"}, {"measurement": "kinase inhibition", "setting": "FGFR3(h); 100 μg/ml", "result": "51% of control"}, {"measurement": "kinase inhibition", "setting": "NEK11(h); 1 μg/ml", "result": "97% of control"}, {"measurement": "kinase inhibition", "setting": "NEK11(h); 5 μg/ml", "result": "106% of control"}, {"measurement": "kinase inhibition", "setting": "NEK11(h); 25 μg/ml", "result": "96% of control"}, {"measurement": "kinase inhibition", "setting": "NEK11(h); 50 μg/ml", "result": "75% of control"}, {"measurement": "kinase inhibition", "setting": "NEK11(h); 100 μg/ml", "result": "51% of control"}, {"measurement": "kinase inhibition", "setting": "PAK4(h); 1 μg/ml", "result": "105% of control"}, {"measurement": "kinase inhibition", "setting": "PAK4(h); 5 μg/ml", "result": "84% of control"}, {"measurement": "kinase inhibition", "setting": "PAK4(h); 25 μg/ml", "result": "98% of control"}, {"measurement": "kinase inhibition", "setting": "PAK4(h); 50 μg/ml", "result": "110% of control"}, {"measurement": "kinase inhibition", "setting": "PAK4(h); 100 μg/ml", "result": "99% of control"}, {"measurement": "kinase inhibition", "setting": "Pim-2(h); 1 μg/ml", "result": "103% of control"}, {"measurement": "kinase inhibition", "setting": "Pim-2(h); 5 μg/ml", "result": "111% of control"}, {"measurement": "kinase inhibition", "setting": "Pim-2(h); 25 μg/ml", "result": "77% of control"}, {"measurement": "kinase inhibition", "setting": "Pim-2(h); 50 μg/ml", "result": "73% of control"}, {"measurement": "kinase inhibition", "setting": "Pim-2(h); 100 μg/ml", "result": "67% of control"}, {"measurement": "kinase inhibition", "setting": "SGK(h); 1 μg/ml", "result": "106% of control"}, {"measurement": "kinase inhibition", "setting": "SGK(h); 5 μg/ml", "result": "96% of control"}, {"measurement": "kinase inhibition", "setting": "SGK(h); 25 μg/ml", "result": "97% of control"}, {"measurement": "kinase inhibition", "setting": "SGK(h); 50 μg/ml", "result": "92% of control"}, {"measurement": "kinase inhibition", "setting": "SGK(h); 100 μg/ml", "result": "76% of control"}, {"measurement": "kinase inhibition", "setting": "TLK2(h); 1 μg/ml", "result": "98% of control"}, {"measurement": "kinase inhibition", "setting": "TLK2(h); 5 μg/ml", "result": "89% of control"}, {"measurement": "kinase inhibition", "setting": "TLK2(h); 25 μg/ml", "result": "106% of control"}, {"measurement": "kinase inhibition", "setting": "TLK2(h); 50 μg/ml", "result": "94% of control"}, {"measurement": "kinase inhibition", "setting": "TLK2(h); 100 μg/ml", "result": "98% of control"}]}
